Data taken from patent publication US20130108573A1, “Bile Acid Recycling Inhibitors for Treatment of Hypercholemia and Cholestatic Liver Disease” (Lumena Pharmaceuticals, Inc., priority 2011, published 2013).
Marks after values point to notes of the source that are not given here.

Legend:
Dog Serum Bile Acids [1] = experiment: Time to onset of activity of LUM001 on postprandial serum bile acids in beagle dogs; type: in vivo; conditions: for Serum Bile Acid, Mean: dogs n = 6, fed at 0 min, dosed at 60 min
Description: LUM001 was dissolved in water at concentrations that required the administration of 0.2 ml/kg of solution. Solutions were placed into gelatin capsules, Torpac Inc., size 13 Batch 594, East Hanover N.J., and administered orally.
Male beagle dogs were obtained from Covance Research Products, Cumberland Va. or Marshall Farms USA, Inc., North Rose N.Y. A total of 20 dogs, 1 to 5 years old, 6.8 to 15.6 kg body weight, were used in these experiments. The dogs were conditioned to a 12 hour light/dark cycle and maintained on a feeding restriction of 1 hour per day access to food (Richman Standard Certified Canine Diet #5007, PMI Nutrition, Inc., St Louis Mo.) from 7 to 8 AM. They were trained to eat a special meal promptly within 20 minutes when presented (1 can. 397 g, Evanger's 100% Beef for Dogs, Evanger's Dog and Cat Food Co., Inc., Wheeling Ill., mixed with 50 g of sharp cheddar cheese.).
SBA was measured by an enzymatic assay. SBA values are expressed as μg of total bile acids/ml of serum.
To estimate the details of this plateau, 6 dogs were given a test meal and blood samples for SBA measurement were collected at −30, 0, 30, 60, 65, 70, 80, 90, 120, 180, 240, 360, 480, 720, 1410 and 1440 minutes from the time of feeding. Any remaining food was removed 20 min after it was first presented to the dogs. To establish a method for extending the elevated plateau of SBA, 6 dogs were given the meal at 0 hr and an additional ½ size meal again 4 hr after their first meal. Blood samples were taken at 0, 1, 2, 3, 4, 4.5, 6, 7 and 8 hr. The curves for SBA level vs time obtained in these experiments were used as references for determining blood sampling times in experiments with LUM001. Wherever possible, experimental design permitting, in experiments with test compound, each dog served as its own simultaneous control, and the mean 1 hr SBA value served as the reference to which all other mean values were compared.
LUM001 was administered at 0, 0.01, 0.05, 0.2 and 1 mg/kg, p.o. to dogs, n=6, 1 hr after feeding the standard experimental meal. Blood samples for SBA measurement were taken at −30, 0, 30, 60, 65, 70, 80, 90, 120 and 180 minutes from the time of feeding. Each dog served as its own control, and mean SBA levels were compared to the mean SBA level at 60 minutes.

Dog Serum Bile Acids [2] = experiment: Duration of action of LUM001 on dog serum bile acids, Method 2: one meal, extended interval between dosing and feeding; type: in vivo, beagle dogs; conditions: feeding time 2 hr
Dog Serum Bile Acids [3] = conditions: dogs; previous experiments (2); cited from earlier work
serum bile acids = experiment: Human study of LUM001 lowering fasting and post-prandial peak serum bile acids in children and adolescents; type: in vivo; conditions: for Fasting serum bile acid / Morning Post-prandial peak: after eight days of dosing
Description: LUM001 has been administered to forty patients under the age of 18 years old. […] The drug was administered once-a-day (QD) in the morning for fourteen days. […] These doses are similar to those using to treat patients with cholestatic diseases.
The efficacy of LUM001 was determined by measuring total serum bile acids after eight days of dosing in children and adolescents under the age of eighteen. Thirty minutes before the next drug administration, at approximately 8 am in the morning, serum bile acid levels were measured. The child had refrained from food for 12 hours prior to this sample thus providing a fasted level of serum bile acid. After breakfast, serum bile acids were measured for up to the next 4 hours (8 am to noon) and the peak serum bile acid concentration noted.

[4] = dogs, 1 mg/kg orally 1 hour after feeding
[5] = patient 401, drug dose 2.5 mg QD

CCCCC1(CCCC)CS(=O)(=O)c2ccc(N(C)C)cc2[C@@H](c2ccc(OCc3ccc(C[N+]45CCN(CC4)CC5)cc3)cc2)[C@H]1O [LUM001]
Threshold dose for significant SBA lowering (Dog Serum Bile Acids [1]; dog SBA model, oral): 0.05 mg/kg
Serum Bile Acid, Mean (Dog Serum Bile Acids [1]; 0.01 mg/kg p.o., time 0 min): 1.4 µg/mL
Serum Bile Acid, Mean (Dog Serum Bile Acids [1]; 0.01 mg/kg p.o., time 30 min): 5.8 µg/mL
Serum Bile Acid, Mean (Dog Serum Bile Acids [1]; 0.01 mg/kg p.o., time 60 min): 14.6 µg/mL
Serum Bile Acid, Mean (Dog Serum Bile Acids [1]; 0.01 mg/kg p.o., time 65 min): 13.9 µg/mL
Serum Bile Acid, Mean (Dog Serum Bile Acids [1]; 0.01 mg/kg p.o., time 70 min): 14.1 µg/mL
Serum Bile Acid, Mean (Dog Serum Bile Acids [1]; 0.01 mg/kg p.o., time 80 min): 12.8 µg/mL
Serum Bile Acid, Mean (Dog Serum Bile Acids [1]; 0.01 mg/kg p.o., time 90 min): 11.0 µg/mL
Serum Bile Acid, Mean (Dog Serum Bile Acids [1]; 0.01 mg/kg p.o., time 120 min): 10.6 µg/mL
Serum Bile Acid, Mean (Dog Serum Bile Acids [1]; 0.01 mg/kg p.o., time 180 min): 11.0 µg/mL
Serum Bile Acid, Mean (Dog Serum Bile Acids [1]; 0.01 mg/kg p.o., time −30 min): 1.5 µg/mL
Serum Bile Acid, Mean (Dog Serum Bile Acids [1]; 0.05 mg/kg p.o., time 0 min): 2.1 µg/mL
Serum Bile Acid, Mean (Dog Serum Bile Acids [1]; 0.05 mg/kg p.o., time 30 min): 6.8 µg/mL
Serum Bile Acid, Mean (Dog Serum Bile Acids [1]; 0.05 mg/kg p.o., time 60 min): 10.4 µg/mL
Serum Bile Acid, Mean (Dog Serum Bile Acids [1]; 0.05 mg/kg p.o., time 65 min): 12.2 µg/mL
Serum Bile Acid, Mean (Dog Serum Bile Acids [1]; 0.05 mg/kg p.o., time 70 min): 12.0 µg/mL
Serum Bile Acid, Mean (Dog Serum Bile Acids [1]; 0.05 mg/kg p.o., time 80 min): 10.0 µg/mL
Serum Bile Acid, Mean (Dog Serum Bile Acids [1]; 0.05 mg/kg p.o., time 90 min): 8.8 µg/mL
Serum Bile Acid, Mean (Dog Serum Bile Acids [1]; 0.05 mg/kg p.o., time 120 min): 6.5* μg/ml
Serum Bile Acid, Mean (Dog Serum Bile Acids [1]; 0.05 mg/kg p.o., time 180 min): 6.5* μg/ml
Serum Bile Acid, Mean (Dog Serum Bile Acids [1]; 0.05 mg/kg p.o., time −30 min): 1.4 µg/mL
Serum Bile Acid, Mean (Dog Serum Bile Acids [1]; 0.2 mg/kg p.o., time 0 min): 1.9 µg/mL
Serum Bile Acid, Mean (Dog Serum Bile Acids [1]; 0.2 mg/kg p.o., time 30 min): 9.1 µg/mL
Serum Bile Acid, Mean (Dog Serum Bile Acids [1]; 0.2 mg/kg p.o., time 60 min): 19.1 µg/mL
Serum Bile Acid, Mean (Dog Serum Bile Acids [1]; 0.2 mg/kg p.o., time 65 min): 14.9 µg/mL
Serum Bile Acid, Mean (Dog Serum Bile Acids [1]; 0.2 mg/kg p.o., time 70 min): 16.7 µg/mL
Serum Bile Acid, Mean (Dog Serum Bile Acids [1]; 0.2 mg/kg p.o., time 80 min): 14.3 µg/mL
Serum Bile Acid, Mean (Dog Serum Bile Acids [1]; 0.2 mg/kg p.o., time 90 min): 9.8* μg/ml
Serum Bile Acid, Mean (Dog Serum Bile Acids [1]; 0.2 mg/kg p.o., time 120 min): 4.8* μg/ml
Serum Bile Acid, Mean (Dog Serum Bile Acids [1]; 0.2 mg/kg p.o., time 180 min): 4.0 µg/mL
Serum Bile Acid, Mean (Dog Serum Bile Acids [1]; 0.2 mg/kg p.o., time −30 min): 2.4 µg/mL
Serum Bile Acid, Mean (Dog Serum Bile Acids [1]; 1 mg/kg p.o., time 0 min): 2.6 µg/mL
Serum Bile Acid, Mean (Dog Serum Bile Acids [1]; 1 mg/kg p.o., time 30 min): 7.6 µg/mL
Serum Bile Acid, Mean (Dog Serum Bile Acids [1]; 1 mg/kg p.o., time 60 min): 13.8 µg/mL
Serum Bile Acid, Mean (Dog Serum Bile Acids [1]; 1 mg/kg p.o., time 65 min): 13.5 µg/mL
Serum Bile Acid, Mean (Dog Serum Bile Acids [1]; 1 mg/kg p.o., time 70 min): 15.4 µg/mL
Serum Bile Acid, Mean (Dog Serum Bile Acids [1]; 1 mg/kg p.o., time 80 min): 12.1 µg/mL
Serum Bile Acid, Mean (Dog Serum Bile Acids [1]; 1 mg/kg p.o., time 90 min): 7.4* μg/ml
Serum Bile Acid, Mean (Dog Serum Bile Acids [1]; 1 mg/kg p.o., time 120 min): 3.0* μg/ml
Serum Bile Acid, Mean (Dog Serum Bile Acids [1]; 1 mg/kg p.o., time 180 min): 2.6* μg/ml
Serum Bile Acid, Mean (Dog Serum Bile Acids [1]; 1 mg/kg p.o., time −30 min): 2.1 µg/mL
Time after dosing to significantly lowered serum bile acid levels (Dog Serum Bile Acids [1]; dogs, 0.2 mg/kg orally 1 hour after feeding): ≤ 30 min
Effect of increasing the dose above the ED50 level on onset time to significant SBA lowering (Dog Serum Bile Acids [1]; [4]): did not shorten the onset time
Time after dosing for which maximal SBA suppression was sustained (Dog Serum Bile Acids [1]; [4]): 2 h
Serum Bile Acid, Mean (Dog Serum Bile Acids [2]; dogs n = 6, 0.2 mg/kg p.o., dosing time 0 hr, time 3 hr): 4.1* μg/ml
Serum Bile Acid, Mean (Dog Serum Bile Acids [2]; dogs n = 6, 0.2 mg/kg p.o., dosing time 0 hr, time 4 hr): 6.5* μg/ml
Serum Bile Acid, Mean (Dog Serum Bile Acids [2]; dogs n = 9, 0.05 mg/kg p.o., dosing time 0 hr, time 0 hr): 1.7 µg/mL
Serum Bile Acid, Mean (Dog Serum Bile Acids [2]; dogs n = 9, 0.05 mg/kg p.o., dosing time 0 hr, time 2 hr): 2.0 µg/mL
Serum Bile Acid, Mean (Dog Serum Bile Acids [2]; dogs n = 9, 0.05 mg/kg p.o., dosing time 0 hr, time 3 hr): 9.0* μg/ml
Serum Bile Acid, Mean (Dog Serum Bile Acids [2]; dogs n = 9, 0.05 mg/kg p.o., dosing time 0 hr, time 4 hr): 10.8 µg/mL
Serum Bile Acid, Mean (Dog Serum Bile Acids [2]; dogs n = 9, 0.05 mg/kg p.o., dosing time 0 hr, time 5 hr): 10.6 µg/mL
Serum Bile Acid, Mean (Dog Serum Bile Acids [2]; dogs n = 9, 0.05 mg/kg p.o., dosing time 0.5 hr, time 0.5 hr): 1.8 µg/mL
Serum Bile Acid, Mean (Dog Serum Bile Acids [2]; dogs n = 9, 0.05 mg/kg p.o., dosing time 0.5 hr, time 2 hr): 1.7 µg/mL
Serum Bile Acid, Mean (Dog Serum Bile Acids [2]; dogs n = 9, 0.05 mg/kg p.o., dosing time 0.5 hr, time 2.5 hr): 2.5 µg/mL
Serum Bile Acid, Mean (Dog Serum Bile Acids [2]; dogs n = 9, 0.05 mg/kg p.o., dosing time 0.5 hr, time 3 hr): 9.7 µg/mL
Serum Bile Acid, Mean (Dog Serum Bile Acids [2]; dogs n = 9, 0.05 mg/kg p.o., dosing time 0.5 hr, time 4 hr): 12.4 µg/mL
Serum Bile Acid, Mean (Dog Serum Bile Acids [2]; dogs n = 9, 0.05 mg/kg p.o., dosing time 0.5 hr, time 5 hr): 11.6 µg/mL
Time LUM001 remains active (Dog Serum Bile Acids [3]): more than 4.5 hours
Decrease of average fasting serum bile acid level vs placebo patients (serum bile acids; LUM001 1-5 mg QD): 24%
Decrease of average post-prandial peak serum bile acid level vs placebo patients (serum bile acids; LUM001 1-5 mg QD): 23%
Average fasting serum bile acid level of LUM001 treated patients (serum bile acids; LUM001 1-5 mg QD, placebo patients 8.6 μmol/L): 6.5 µmol/L
Average post-prandial peak serum bile acid level of LUM001 treated patients (serum bile acids; LUM001 1-5 mg QD, placebo patients 11.9 μmol/L): 9.2 µmol/L
Fasting serum bile acid (serum bile acids; patient 304, drug dose 1 mg QD): 5.6 µmol/L
Morning Post-prandial peak (serum bile acids; patient 304, drug dose 1 mg QD): 8.4 µmol/L
Fasting serum bile acid (serum bile acids; patient 308, drug dose 1 mg QD): 6.8 µmol/L
Morning Post-prandial peak (serum bile acids; patient 308, drug dose 1 mg QD): 9.3 µmol/L
Fasting serum bile acid (serum bile acids; patient 309, drug dose 1 mg QD): 6.9 µmol/L
Morning Post-prandial peak (serum bile acids; patient 309, drug dose 1 mg QD): 10.0 µmol/L
Fasting serum bile acid (serum bile acids; [5]): 6.0 µmol/L
Morning Post-prandial peak (serum bile acids; [5]): 6.8 µmol/L
Fasting serum bile acid (serum bile acids; patient 510, drug dose 5 mg QD): 7.4 µmol/L
Morning Post-prandial peak (serum bile acids; patient 510, drug dose 5 mg QD): 11.3 µmol/L
